This assay addresses T1, CX43 (connexin 43; recombinant human CX43) (Homo sapiens, UniProt P17302).
T1 construct: gene GJA1; recombinant human CX43 from GenScript, immobilised on CM5 chip
Description: SPR, Biacore T200, CX43 immobilised on CM5 chip. Format: binding.

One may read the Kd as the free concentration of one partner at which half of the binding sites on the other are occupied at equilibrium, for simple one-to-one binding.

T1 sequence (P17302 2-382): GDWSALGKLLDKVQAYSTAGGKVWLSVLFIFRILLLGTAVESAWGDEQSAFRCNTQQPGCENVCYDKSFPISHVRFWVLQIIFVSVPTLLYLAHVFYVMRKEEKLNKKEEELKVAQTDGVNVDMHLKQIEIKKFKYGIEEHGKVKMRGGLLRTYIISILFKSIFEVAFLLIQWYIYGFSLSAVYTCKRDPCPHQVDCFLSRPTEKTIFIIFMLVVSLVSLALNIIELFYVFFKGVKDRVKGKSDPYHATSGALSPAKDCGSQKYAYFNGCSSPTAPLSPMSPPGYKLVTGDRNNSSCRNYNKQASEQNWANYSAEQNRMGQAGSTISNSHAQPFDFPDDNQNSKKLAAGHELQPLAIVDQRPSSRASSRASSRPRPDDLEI

For `NC(=O)c1ccc[n+]([C@@H]2O[C@H](COP(=O)([O-])OP(=O)(O)OC[C@H]3O[C@@H](n4cnc5c(N)ncnc54)[C@H](O)[C@@H]3O)[C@@H](O)[C@H]2O)c1` [NAD^+], the Kd was found to be 0.0142 nM.

Source of the values: paper PMC12559800, “A NADH Oxidase Nanozyme Restores Redox Homeostasis to Ameliorate Multi-Organ Aging and Ischemic Cardiomyopathy” (Research, 2025).
